Patent publication US20030077740A1, “Presenilin/Crk binding polypeptides (PCBP) and methods of use thereof” (priority 2001, published 2003)
Residues, ends and D or L forms follow the SMILES beside them. *: point of attachment. Cbz = O=C(OCc1ccccc1)*

Legend:
[1] = test system: PBP; details: PS fragment fused to GAL4-DNA binding domain, PBPα-GAL4 activation domain, β-galactosidase assay
Procedure: The yeast two-hybrid system was used to screen for cytoplasmic proteins that interact with PSs. […] Yeast (Y190) were co-transformed with each of the PS1 constructs and a mouse brain cDNA library fused to the GAL4 activation domain in the pGAD424 vector (Clontech). Transformants were plated on yeast drop-out media (Clontech) contain g 20 mM 3-amino-1,2,4-triazole (3-AT), and after 10 days of incubation at 30° C., colonies were transferred to Nitropure membrane Micron Separation Inc., Westboro, MA), and the X-gal assay was performed.
To determine the minimal sequence of the large hydrophilic loop of PS that is required for the interaction with PBP, three deletion fragments of the loop were inserted into pGBT9 and the interaction with PBP was examined using the yeast two-hybrid system.

[2] = biological target: T1, PS1 (Homo sapiens, UniProt P49768); experiment: yeast two-hybrid interaction with PS1; assay type: binding; details: yeast two-hybrid assay
T1 construct: the large hydrophilic loop region of PS1 (amino acids 1-81, 429-468, 263-407, respectively) were inserted into the pGBT9 vector; expressed in transfected cells; host or cells: yeast Y190

[3] = biological target: T2, large hydrophilic loop of PS1 (Homo sapiens, UniProt P49768); experiment: co-immunoprecipitation in 293T cells, PS1 loop; assay type: binding; details: immunoprecipitation with anti-TAG, 48 hrs after transfection, PS1-FLAG loop
T2 construct: and a large hydrophilic loop (amino acids 263-407); expressed in transfected cells; host or cells: 293T human kidney cells, pCIS2 expression vector
Procedure: To confirm the yeast two-hybrid data, the interaction between PBP and PSs was assayed in mammalian cells by immunoprecipitation. Human kidney 293-T cells, and monkey kidney COS-7 cells were cultured in Dulbecco's modified Eagle's medium supplemented with 10% fetal calf serum at 37° C. in a 10% CO2 atmosphere. A nine-amino acid TAG epitope ([…]) (SEQ ID NO:6) was incorporated in-frame at the 3′ end of the PBP cDNA (PBP-TAG), and an eight amino acid FLAG epitope ([…]) (SEQ ID NO:7) was attached in frame at the 5′ end of the large hydrophilic loop of PS1 cDNA and at the 3′ end of full length PS1 cDNA as described previously (Kimura, H., Proc. Natl. Acad. Sci. (USA), 90:2165-2169 (1993)). The resulting fragments were inserted into the pCIS2 expression vector (Genentech, San Francisco, Calif.) for transient or constitutive expression. […]
For immunoprecipitation of the large hydrophilic loop of PSs or Crk with PBP, cells were lysed in RIPA buffer (100 mM NaCl, 0.5% NP-40, 0.5% DOC, 0.1% SDS, 50 mM Tris, pH 7.5, 1 mM PMSF and 1 μg/ml aprotinin, 1 μg/l leupeptin) on ice for 30 min. […] The bound antibodies were detected by the ECL-plus chemiluminescence system (Amersham, Arlington Heights, Ill.).

[4] = test system: B103 (APP695) cells; experiment: APP secretion by transfected B103 (APP695) cells, Western blotting; assay type: cell-based, rat; details: overexpression of the protein
[5] = test system: APP695/PBP cells; experiment: protease inhibitors on APP secretion and intracellular accumulation; assay type: cell-based, rat
Procedure: Cells and transfection: Neuronal cell line B103 (Schubert et al. (1974) Nature, 249, 224-227) was grown in Dulbecco's modified Eagle's medium (DMEM) supplemented with 10% heat-inactivated fetal bovine serum (FBS). B103 cells were transfected with APP695 using G418 selection (Schubert et al. (1989) Neuron, 3: 689-694) and with various plasmids by Lepfectamin2000 (GIBCO; NJ, USA) using puromycin selection for PBP or hygromycin for PS1, respectively. The stably transfected cells were subsequently cloned and screened for protein expression by western blot analysis.
Western blotting, metabolic labeling and immunoprecipitation: For western blotting, cells were washed twice with ice-cold PBS and lysed in lysis buffer (1% Triton, 50 mM Hepes pH 7.5, 50 mM NaCl, 5 mM EDTA, 1 mM Na3VO4, 50 mM NaF, 10 mM Na4P2O7, plus a mixture of protease inhibitors (Complete Mini; Roche, Ind., USA). Protein concentrations were determined by Coomassie Plus (Pierce; IL, USA). The same amount of protein from each sample was separated on Novex pre-cast polyacrylamide gels (Invitrogen; CA, USA), and transferred to Immobulin membranes (Millipore; MA, USA). The membranes were blocked with 5% non-fat milk in Tris-buffered saline for 1 hour at room temperature. Following overnight incubation at 4° C. with primary antibodies, the antigens are detected with horseradish peroxidase-conjugated secondary antibodies (Bio-Rad; CA, USA; 1:20,000), an ECL kit (Amersham; NJ, USA), and exposed to films. For pulse-chase experiments, cells were grown to 80% confluency and incubated in methionine-free DMEM for 90 min. Cells were labeled with [^35]S-methionine (400 μCi/ml in methionine-free DMEM plus 5% dialyzed FBS) for 10 min at 37° C., and the medium was replaced with serum-free DMEM medium plus Ni-supplement (Sigma Inc.; MI, USA). The media were collected and cells were lysed after different time periods. Protein concentrations were determined and the same amounts of proteins were immunoprecipitated with antibodies at 4° C. overnight 25 μl of anti-mouse IgG agarose (Roche) was then added to each sample and incubated at 4° C. for 2 hours on a rocker platform. The immunoprecipitates were collected by centrifugation and washed 4 times with the washing buffer (0.1% Triton, 20 mM Hepes, 150 mM NaCl, 10% glycerol). The agarose beads were resuspended in 30 μl SDS-PAGE sample buffer boiled for 3 min to release the proteins. After 2 min of centrifugation, the supernatants were separated on 8% Tri-glycine gels. The gels were dried and subjected to autoradiography and quantitated by NIH image.
To independently verify the data on APP degradation, the effect of two protease inhibitors, leupeptin and MG132, on the secretion and the intracellular accumulation of APP was studied. Leupeptin is thought to inhibit lysosomal proteases, whereas MG132 is thought to inhibit ER membrane protein degradation through the ubiquitin-proteasome pathway (Soriano et al. (1999) J. Biol. Chem., 274: 32295-32300).

[6] = 100 μM, either cells, data not shown

**Q.** With EERGVKLGLGDFIFYSVLVGKA [consensus] as the compound, how does the “interaction with PBP” value [1] read?
**A.** Its value is “exhibit an interaction”.

**Q.** Which “functional interaction with PS1” value [2] does the source give for “Dock 180: protein 40% homologous to PBP, has a SH3 domain and interacts with Crk [reference compound]” here?
**A.** The value was “nor did it functionally interact”.

**Q.** And the “interaction with PS1” value [3]?
**A.** Its value is “did not show any interaction”.

**Q.** And the “secretion of APP” value [4]?
**A.** Its value is “not affected”.

**Q.** For `CC(=O)N[C@@H](CC(C)C)C(=O)N[C@@H](CC(C)C)C(=O)N[C@H](C=O)CCCNC(=N)N` [leupeptin], which APP secretion [5, 6] is on record?
**A.** Its APP secretion is “no effect”.

**Q.** What about the “intracellular accumulation of APP” value [5, 6] of the same compound?
**A.** Its value is “no effect”.

**Q.** What does the source list for `CC(C)C[C@@H](C=O)NC(=O)[C@H](CC(C)C)NC(=O)[C@H](CC(C)C)NC(=O)OCc1ccccc1` [MG132] (Cbz-Leu-Leu-Leu-aldehyde)?
**A.** APP secretion ([5]; 10 μM, APP695/PBP cells): significantly increased; intracellular accumulation of APP ([5]; 10 μM, APP695/PBP cells): significantly increased; secretion of APP in cells expressing PBP ([5]; after 16 hours of treatment): almost restored to the control level
